Assay results: patent publication US8772293B2, “Chemical compounds” (Pfizer Limited, priority 2010, dated 2014)
Where a name gives a salt, the structure may show the parent alone.

target: T1, Nav1.7 (or SCN9A) channel (Homo sapiens, UniProt Q15858); assay: Nav1.7 (hSCN9A) PatchXpress electrophysiology in HEK cells; format: cell-based; details: PatchXpress platform; HEK cells stably expressing hSCN9A; held at V1/2 of inactivation; calculated from single point % inhibition; read-out: Nav1.7 EIC50 (estimated IC-50)
T1 construct: expressed in transfected cells
Description: The ability of the compounds of formula (I) to block the Nav1.7 (or SCN9A) channel were measured using the assay described below.
Human Embryonic Kidney (HEK) cells were transfected with an hSCN9A construct using lipofectamine reagent (Invitrogen), using standard techniques. Cells stably expressing the hSCN9A constructs were identified by their resistance to G-418 (400 μg/ml). Clones were screened for expression using the whole-cell voltage-clamp technique.
HEK cells stably transfected with hSCN9A were maintained in DMEM medium supplemented with 10% heat-inactivated fetal bovine serum and 400 µg/ml G-418 in an incubator at 37° C. with a humidified atmosphere of 10% CO2. For HTS, cells were harvested from flasks by trypsinization and replated in an appropriate multi-well plate (typically 96 or 384 wells/plate) such that confluence would be achieved within 24 hours of plating. For electrophysiological studies, cells were removed from the culture flask by brief trypsinization and re-plated at low density onto glass cover slips. Cells were typically used for electrophysiological experiments within 24 to 72 hours after plating.
Cover slips containing HEK cells expressing hSCN9A were placed in a bath on the stage of an inverted microscope and perfused (approximately 1 ml/minutes) with extracellular solution of the following composition: 138 mM NaCl, 2 mM CaCl2, 5.4 mM KCl, 1 mM MgCl2, 10 mM glucose, and 10 mM HEPES, pH 7.4, with NaOH. […] The osmolarity of the extracellular and intracellular solutions was 300 mOsm/kg and 295 mOsm/kg, respectively. All recordings were made at room temperature (22-24° C.) using AXOPATCH 200B amplifiers and PCLAMP software (Axon Instruments, Burlingame, Calif.).
hSCN9A currents in HEK cells were measured using the whole-cell configuration of the patch-clamp technique (Hamill et al., 1981). Uncompensated series resistance was typically 2 to 5 mega ohms and >85% series resistance compensation was routinely achieved. As a result, voltage errors were negligible and no correction was applied. Current records were acquired at 20 to 50 KHz and filtered at 5 to 10 KHz.
HEK cells stably transfected with hSCN9A were viewed under Hoffman contrast optics and placed in front of an array of flow pipes emitting either control or compound-containing extracellular solutions. All compounds were dissolved in dimethyl sulfoxide to make 10 mM stock solutions, which were then diluted into extracellular solution to attain the final concentrations desired. […] The voltage-dependence of inactivation was determined by applying a series of depolarizing prepulses (8 sec long in 10 mV increments) from a negative holding potential. The voltage was then immediately stepped to 0 mV to assess the magnitude of the sodium current. Currents elicited at 0 mV were plotted as a function of prepulse potential to allow estimation of the voltage at which 50% of the channels were inactivated (midpoint of inactivation or V1/2). Compounds were tested for their ability to inhibit hSCN9A sodium channels by activating the channel with a 20 msec voltage step to 0 mV following an 8 second conditioning prepulse to the empirically determined V1/2. Compound effect (% inhibition) was determined by difference in current amplitude before and after application of test compounds. For ease of comparison, “estimated IC-50” (EIC50) values were calculated from single point electrophysiology data by the following equation, (tested concentration, uM)×(100-% inhibition/% inhibition). Inhibition values <20% and >80% were excluded from the calculation.
Electrophysiological assays were conducted with PatchXpress 7000 hardware and associated software (Molecular Devices Corp). All assay buffers and solutions were identical to those used in conventional whole-cell voltage clamp experiments described above. hSCN9A cells were grown as above to 50%-80% confluency and harvested by trypsinization. […]

T1 sequence (Q15858 whole entry): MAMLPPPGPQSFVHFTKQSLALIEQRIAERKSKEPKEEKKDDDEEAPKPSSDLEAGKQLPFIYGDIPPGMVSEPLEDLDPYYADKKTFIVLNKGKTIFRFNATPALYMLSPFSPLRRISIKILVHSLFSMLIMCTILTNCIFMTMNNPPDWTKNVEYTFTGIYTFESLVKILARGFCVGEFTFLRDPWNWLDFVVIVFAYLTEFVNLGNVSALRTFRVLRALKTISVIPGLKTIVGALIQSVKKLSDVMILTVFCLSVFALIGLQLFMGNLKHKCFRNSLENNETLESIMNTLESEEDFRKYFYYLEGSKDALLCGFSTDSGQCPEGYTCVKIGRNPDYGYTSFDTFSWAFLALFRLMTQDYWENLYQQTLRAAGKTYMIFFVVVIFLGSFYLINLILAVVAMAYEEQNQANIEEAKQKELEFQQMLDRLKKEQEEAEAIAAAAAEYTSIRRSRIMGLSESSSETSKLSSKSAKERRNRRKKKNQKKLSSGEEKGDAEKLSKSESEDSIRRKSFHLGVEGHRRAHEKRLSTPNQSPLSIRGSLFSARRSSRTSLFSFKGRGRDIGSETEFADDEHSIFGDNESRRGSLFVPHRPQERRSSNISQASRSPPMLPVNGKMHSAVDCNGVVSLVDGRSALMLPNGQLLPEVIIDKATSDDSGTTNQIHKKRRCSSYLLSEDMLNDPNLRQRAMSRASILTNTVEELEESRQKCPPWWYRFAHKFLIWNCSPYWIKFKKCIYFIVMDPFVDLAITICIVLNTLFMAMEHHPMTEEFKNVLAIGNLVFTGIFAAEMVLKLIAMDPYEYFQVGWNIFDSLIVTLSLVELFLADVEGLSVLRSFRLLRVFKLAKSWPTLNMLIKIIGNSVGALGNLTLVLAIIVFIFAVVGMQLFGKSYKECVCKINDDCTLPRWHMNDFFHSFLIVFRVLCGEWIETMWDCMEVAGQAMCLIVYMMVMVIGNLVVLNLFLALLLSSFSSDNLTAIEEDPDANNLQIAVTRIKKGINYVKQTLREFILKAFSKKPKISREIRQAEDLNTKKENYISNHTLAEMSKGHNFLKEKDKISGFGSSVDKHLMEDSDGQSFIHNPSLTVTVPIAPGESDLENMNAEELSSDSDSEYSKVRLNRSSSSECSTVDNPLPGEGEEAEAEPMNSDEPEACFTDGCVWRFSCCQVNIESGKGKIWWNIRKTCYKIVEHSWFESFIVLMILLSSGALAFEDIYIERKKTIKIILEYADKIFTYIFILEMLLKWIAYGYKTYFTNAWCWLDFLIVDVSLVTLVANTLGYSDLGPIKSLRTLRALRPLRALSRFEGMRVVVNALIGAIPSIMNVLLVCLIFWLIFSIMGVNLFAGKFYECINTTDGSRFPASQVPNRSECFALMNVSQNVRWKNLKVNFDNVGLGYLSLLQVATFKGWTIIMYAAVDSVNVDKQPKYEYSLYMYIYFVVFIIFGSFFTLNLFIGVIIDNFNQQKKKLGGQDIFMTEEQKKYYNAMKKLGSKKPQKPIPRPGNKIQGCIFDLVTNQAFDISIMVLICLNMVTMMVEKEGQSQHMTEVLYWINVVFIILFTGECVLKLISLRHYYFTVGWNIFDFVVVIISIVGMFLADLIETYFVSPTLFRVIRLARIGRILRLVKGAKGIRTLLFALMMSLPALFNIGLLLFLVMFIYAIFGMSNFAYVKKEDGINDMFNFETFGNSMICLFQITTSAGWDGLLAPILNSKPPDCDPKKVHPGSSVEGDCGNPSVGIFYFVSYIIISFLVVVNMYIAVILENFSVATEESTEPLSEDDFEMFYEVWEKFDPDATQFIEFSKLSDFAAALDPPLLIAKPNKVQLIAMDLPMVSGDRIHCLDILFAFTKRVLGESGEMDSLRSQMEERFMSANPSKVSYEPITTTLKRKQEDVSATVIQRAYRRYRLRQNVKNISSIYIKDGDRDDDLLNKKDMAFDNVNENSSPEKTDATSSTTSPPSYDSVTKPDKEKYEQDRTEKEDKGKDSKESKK

IC50 [nM] | Compound
1.8 | N#Cc1cc(S(=O)(=O)Nc2ncns2)ccc1Oc1ccc(-c2cccc(C(F)(F)F)c2)cc1-c1ccnnc1 [Example 1, 3-Cyano-4-{[3-pyridazin-4-yl-3′-(trifluoromethyl)biphenyl-4-yl]oxy}-N-1,2,4-thiadiazol-5-ylbenzenesulfonamide]
8.1 | O=S(=O)(Nc1ncccn1)c1cc(Cl)c(Oc2ccc(-c3ccc(C(F)(F)F)cc3)cc2-c2ccnnc2)cc1F [Example 2, 5-Chloro-2-fluoro-4-{[3-pyridazin-4-yl-4′-(trifluoromethyl)biphenyl-4-yl]oxy}-N-pyrimidin-2-ylbenzenesulfonamide]
31 | O=S(=O)(Nc1cccnn1)c1ccc(Oc2ccc(-c3ccc(C(F)(F)F)cc3)cc2-c2ccnnc2)c(Cl)c1 [Example 3, 3-Chloro-N-pyridazin-3-yl-4-{[3-pyridazin-4-yl-4′-(trifluoromethyl)biphenyl-4-yl]oxy}benzenesulfonamide]
2.9 | O=S(=O)(Nc1nncs1)c1cc(Cl)c(Oc2ccc(-c3ccccc3C(F)(F)F)cc2-c2ccnnc2)cc1F [Example 4, 5-Chloro-2-fluoro-4-{[3-pyridazin-4-yl-2′-(trifluoromethyl)biphenyl-4-yl]oxy}-N-1,3,4-thiadiazol-2-ylbenzenesulfonamide]
1.3 | O=S(=O)(Nc1nncs1)c1cc(Cl)c(Oc2ccc(-c3cccc(C(F)(F)F)c3)cc2-c2ccnnc2)cc1F [Example 5]
2.9 | O=S(=O)(Nc1nncs1)c1cc(Cl)c(Oc2ccc(-c3ccc(C(F)(F)F)cc3)cc2-c2ccnnc2)cc1F [Example 6, 5-Chloro-2-fluoro-4-{[3-pyridazin-4-yl-4′-(trifluoromethyl)biphenyl-4-yl]oxy}-N-1,3,4-thiadiazol-2-ylbenzenesulfonamide]
1.2 | N#Cc1cc(S(=O)(=O)Nc2ncns2)ccc1Oc1ccc(-c2ccc(C(F)(F)F)cc2)cc1-c1ccnnc1 [Example 7, 3-Cyano-4-{[3-pyridazin-4-yl-4′-(trifluoromethyl)biphenyl-4-yl]oxy}-N-1,2,4-thiadiazol-5-ylbenzenesulfonamide]
32 | Cn1nccc1-c1cc(-c2ccccc2)ccc1Oc1ccc(S(=O)(=O)Nc2nccs2)cc1F [Example 8, 3-Fluoro-4-{[3-(1-methyl-1H-pyrazol-5-yl)biphenyl-4-yl]oxy}-N-1,3-thiazol-2-ylbenzenesulfonamide]
11.6 | O=S(=O)(Nc1nncs1)c1ccc(Oc2ccc(-c3ccccc3)cc2-c2ccnnc2)c(Cl)c1 [Example 9, 3-Chloro-4-[(3-pyridazin-4-ylbiphenyl-4-yl)oxy]-N-1,3,4-thiadiazol-2-ylbenzenesulfonamide]
53 | N#Cc1cc(S(=O)(=O)Nc2nncs2)ccc1Oc1ccc(-c2ccccc2)cc1-c1ccnnc1 [Example 10, 3-Cyano-4-[(3-Pyridazin-4-ylbiphenyl-4-yl)oxy]-N-1,3,4-thiadiazol-2-ylbenzenesulfonamide]
7.7 | O=S(=O)(Nc1nncs1)c1cc(Cl)c(Oc2ccc(-c3ccccc3)cc2-c2ccnnc2)cc1F [Example 11, 5-Chloro-2-fluoro-4-[(3-pyridazin-4-ylbiphenyl-4-yl)oxy]-N-1,3,4-thiadiazol-2-ylbenzenesulfonamide]
1.9 | N#Cc1cc(S(=O)(=O)Nc2ncns2)ccc1Oc1ccc(-c2ccccc2)cc1-c1ccnnc1 [Example 12, 3-Cyano-4-[(3-pyridazin-4-ylbiphenyl-4-yl)oxy]-N-1,2,4-thiadiazol-5-ylbenzenesulfonamide]
2.2 | CN1CC(n2nccc2-c2cc(-c3ccccc3C(F)(F)F)ccc2Oc2cc(F)c(S(=O)(=O)Nc3nncs3)cc2Cl)C1 [Example 13, 5-Chloro-2-fluoro-4-({3-[1-(1-methylazetidin-3-yl)-1H-pyrazol-5-yl]-2′-(trifluoromethyl)biphenyl-4-yl}oxy)-N-1,3,4-thiadiazol-2-ylbenzenesulfonamide]
1.1 | CN1CC(n2nccc2-c2cc(-c3ccc(C(F)(F)F)cc3)ccc2Oc2cc(F)c(S(=O)(=O)Nc3nncs3)cc2Cl)C1 [Example 14, 5-Chloro-2-fluoro-4-({3-[1-(1-methylazetidin-3-yl)-1H-pyrazol-5-yl]-4′-(trifluoromethyl)biphenyl-4-yl}oxy)-N-1,3,4-thiadiazol-2-ylbenzenesulfonamide]
6 | Cn1nccc1-c1cc(-c2ccccc2)ccc1Oc1ccc(S(=O)(=O)Nc2ncc(F)s2)cc1C#N [Example 15, 3-Cyano-N-(5-fluoro-1,3-thiazol-2-yl)-4-{[3-(1-methyl-1H-pyrazol-5-yl)biphenyl-4-yl]oxy}benzenesulfonamide]
1.5 | Cn1nccc1-c1cc(-c2ccccc2)ccc1Oc1ccc(S(=O)(=O)Nc2ncns2)cc1C#N [Example 16, 3-Cyano-4-{[3-(1-methyl-1H-pyrazol-5-yl)biphenyl-4-yl]oxy}-N-1,2,4-thiadiazol-5-ylbenzenesulfonamide]
2.7 | N#Cc1cc(S(=O)(=O)Nc2ncns2)ccc1Oc1ccc(-c2ccccc2C(F)(F)F)cc1-c1ccnnc1 [Example 17, 3-Cyano-4-{[3-pyridazin-4-yl-2′-(trifluoromethyl)biphenyl-4-yl]oxy}-N-1,2,4-thiadiazol-5-ylbenzenesulfonamide]
18 | COc1cccc(-c2ccc(Oc3ccc(S(=O)(=O)Nc4nccs4)cc3C#N)c(-c3ccnn3C)c2)c1 [Example 18, 3-Cyano-4-{[3′-methoxy-3-(1-methyl-1H-pyrazol-5-yl)biphenyl-4-yl]oxy}-N-(1,3-thiazol-2-yl)benzenesulfonamide]
11 | COc1ccccc1-c1ccc(Oc2ccc(S(=O)(=O)Nc3nccs3)cc2C#N)c(-c2ccnn2C)c1 [Example 19, 3-Cyano-4-{[2′-methoxy-3-(1-methyl-1H-pyrazol-5-yl)biphenyl-4-yl]oxy}-N-(1,3-thiazol-2-yl)benzenesulfonamide]
240 | Cn1nccc1-c1cc(-c2ccccc2)ccc1Oc1ccc(S(=O)(=O)Nc2ccc(F)cn2)cc1C#N [Example 20, 3-Cyano-N-(5-fluoropyridin-2-yl)-4-{[3-(1-methyl-1H-pyrazol-5-yl)biphenyl-4-yl]oxy}benzenesulfonamide]
100 | Cn1nccc1-c1cc(-c2cccc(CN)c2)ccc1Oc1ccc(S(=O)(=O)Nc2nccs2)cc1C#N [Example 21, 4-{[3′-(Aminomethyl)-3-(1-methyl-1H-pyrazol-5-yl)biphenyl-4-yl]oxy}-3-cyano-N-(1,3-thiazol-2-yl)benzenesulfonamide, hydrochloride salt]
33 | Cn1nccc1-c1cc(-c2ccccc2)ccc1Oc1cc(F)c(S(=O)(=O)Nc2ccc(F)cn2)cc1Cl [Example 22, 5-Chloro-2-fluoro-N-(5-fluoropyridin-2-yl)-4-{[3-(1-methyl-1H-pyrazol-5-yl)biphenyl-4-yl]oxy}benzenesulfonamide]
5.1 | CNCc1ccccc1-c1ccc(Oc2ccc(S(=O)(=O)Nc3nccs3)cc2C#N)c(-c2ccnn2C)c1 [Example 23, 3-Cyano-4-({2′-[(methylamino)methyl]-3-(1-methyl-1H-pyrazol-5-yl)biphenyl-4-yl}oxy)-N-(1,3-thiazol-2-yl)benzenesulfonamide, trifluoroacetate salt]
1.7 | O=S(=O)(Nc1nncs1)c1cc(Cl)c(Oc2cc(Cl)c(-c3ccc(F)cc3)cc2-c2ccnnc2)cc1F [Example 24, 5-Chloro-4-{[2-chloro-4′-fluoro-5-(pyridazin-4-yl)biphenyl-4-yl]oxy}-2-fluoro-N-(1,3,4-thiadiazol-2-yl)benzenesulfonamide]
0.8 | Nc1n[nH]cc1-c1cc(-c2cccc(C(F)(F)F)c2)ccc1Oc1cc(F)c(S(=O)(=O)Nc2nncs2)cc1Cl [Example 25, 4-{[3-(3-Amino-1H-pyrazol-4-yl)-3′-(trifluoromethyl)biphenyl-4-yl]oxy}-5-chloro-2-fluoro-N-(1,3,4-thiadiazol-2-yl)benzenesulfonamide]
